# Residues, ends and D or L forms follow the SMILES beside them. *: point of attachment. Cbz = O=C(OCc1ccccc1)*
# Biological target: T1, Purified proteasomes (Homo sapiens, UniProt P28074)
# T1 construct: using this protocol active proteasomes are efficiently isolated from cells; endogenous in cells; immunoprecipitated with anti-α6 antibodies
# Assay: Proteasome activity-based assay with fluorogenic Suc-LLVY-Amc substrate
# Format: biochemical
# Settings: fluorescent LLVY peptide substrate; FIG. 2
# Protocol: Proteasome Activity-Based Assay.
# Purified proteasomes were incubated with the fluorogenic substrate peptide Suc-LLVY-Amc (100 μM) in a reaction mixture containing 50 mM Hepes, pH 7.5, 1 mM DTT, 5 mM MgCl2, and 2 mM ATP. fluorescence of cleaved Amc was measured (excitation, 360 nm; emission, 470 nm).
# A unique system of ‘Proteasomal Profiling’ was developed for the isolation of the active-degradome from the cell by purifying the proteasomal peptide pool, which represents proteins actively undergoing degradation at the time of experiment (FIG. 1). Proteasomal complexes were purified by immunoprecipitation using specific antibodies against the α6 subunit of the 20S core particle. To examine whether the catalytic activity of the proteasomes is retained during the purification procedures, an activity-based assay was performed using a fluorescent LLVY peptide substrate.
smiles,measurement,value
CC(C)C[C@@H](C=O)NC(=O)[C@H](CC(C)C)NC(=O)[C@H](CC(C)C)NC(=O)OCc1ccccc1 [MG132] (Cbz-Leu-Leu-Leu-aldehyde),degradation of the LLVY substrate by purified proteasomes,sensitive
